Experimental data published in US9125937B2, “Labelled analogues of halobenzamides as multimodal radiopharmaceuticals and their precursors” (INSTITUT NATIONAL DE LA SANTE ET DE LA RECHERCHE MEDICALE …, priority 2008, dated 2015).
“And” between values parts separate entries of the source, which are not always exact repeats. Equal entries are not always repeated.

Tests used:
B16 F0 murine melanoma = test: Biodistribution study by planar scintigraphic imaging (gamma camera), tumour uptake quantification; type: in vivo, C57BL6 male mice; conditions: i.v.
Experimental: Tumour Implantation. For transplantation, cells grown in monolayer culture to confluence were trypsinized and washed with phosphate buffer saline (PBS). They were resuspended in PBS and each mouse received 0.1 mL subcutaneously (3×10^5 cells) on the left flank in order to allow a tumour growth on the body side. Ten days later, the tumours became palpable with a percentage of tumour take of 98-100%.
The in vivo biodistribution and kinetic profile of each radiolabelled (iodine-125) compound have been studied in C57BL6 male mice bearing the B16 F0 murine melanoma by repeated planar scintigraphic imaging which allows the tumour uptake follow-up in the same animal.
Gamma Camera. In vivo radionuclide imaging was performed using a γ IMAGER (Biospace Mesures, Paris, France) especially dedicated for small animal, a scintigraphic camera with a continuous 4 mm thick×120 mm diameter CsI(Na) crystal, a position-sensitive Hamamatsu R3292 photomultiplier and a 10 cm field of view.
Imaging Protocol. On day 14 after tumour implantation (tumour weight 0.25±0.10 g) each [^125I]-radioiodinated compound was administered intravenously via a tail vein (0.1 μmol, range 3.7 to 7 MBq/animal) in three mice for each compound. At different times after administration (1, 3, 6, 24, 72 hours, 5, 7, 10 and 15 days), mice were anesthetized with 0.2 mL, for a 20 g mouse, of a ketamine-xylazine mixture in saline (1-0.25 mL for 5 mL) by i. p. administration, and repeated planar scintigraphic whole body imaging (mouse laying in anterior position on the camera field) were performed by an acquisition time of 10 min. For this study, the camera was equipped with a 1.8/0.2/20 collimator (hole diameter/septum thickness/height in mm).
Tumoural Radioactivity Quantification Approach. The injected activity to each mouse was determined from scintigraphic imaging of the syringe before and after the injection using the γ-IMAGER.
Regions of interest (ROIs) were delineated over the whole body image: whole body uptake area (or the various fixing areas, eyes, thyroid and abdomen) and one for the tumour uptake area. In the various ROIs, the activity (cpm) was quantified using the Biospace measures γ VISION+software. These values were normalized to the injected dose. For the tumour, the activity was also normalized to the tumour weight. Firstly, the volume was calculated from the two dimensions caliper measurement (Bissery, M. C.; Guenard, D.; Gueritte-Voegelin, F.; Lavelle, F. Experimental antitumour activity of taxotere (RP 56976, NSC 628503) a taxol analogue. Cancer res. 1991, 51, 4845-4852). Secondly, the weight was determined from the volume value corrected by a factor determined from a large panel of experiments (Weight g=volume mm^3×0.6). The data were expressed as % ID/g of B 16F0 melanoma tumour.

Structure (SMILES) | melting point | Radioactive concentration in tumour (tumoural uptake) (B16 F0 murine melanoma; 1 H post injection) [% ID/g] | Radioactive concentration in tumour (tumoural uptake) (B16 F0 murine melanoma; 3 H post injection) [% ID/g] | Radioactive concentration in tumour (tumoural uptake) (B16 F0 murine melanoma; 6 H post injection) [% ID/g] | Radioactive concentration in tumour (tumoural uptake) (B16 F0 murine melanoma; 24 H post injection) [% ID/g] | Radioactive concentration in tumour (tumoural uptake) (B16 F0 murine melanoma; 72 H post injection) [% ID/g] | Radioactive concentration in tumour (tumoural uptake) (B16 F0 murine melanoma; 120 H post injection) [% ID/g] | Radioactive concentration in tumour (tumoural uptake) (B16 F0 murine melanoma; 168 H post injection) [% ID/g] | Radioactive concentration in tumour (tumoural uptake) (B16 F0 murine melanoma; 240 H post injection) [% ID/g] | Radioactive concentration in tumour (tumoural uptake) (B16 F0 murine melanoma; 360 H (15 days) post injection) [% ID/g]
CCN(CCNC(=O)c1cnc2cc(I)ccc2n1)CCNc1cccc(F)n1.Cl.Cl | 99 to 101 °C (dec.) |  |  |  |  |  |  |  |  | 
CCN(CCNC(=O)c1ccnc(F)c1)CCNC(=O)c1cnc2cc(I)ccc2n1.Cl.Cl | 157 to 159 °C |  |  |  |  |  |  |  |  | 
CCN(CCNC(=O)c1ccc2cc(I)ccc2n1)CCOc1cccnc1F.Cl.Cl | 99 to 101 °C (dec.) |  |  |  |  |  |  |  |  | 
CCN(CCNC(=O)c1ccc2cc(I)ccc2c1)CCOc1cccnc1F.Cl | 157 to 159 °C |  |  |  |  |  |  |  |  | 
CCN(CCNC(=O)c1ccc2cncc(I)c2n1)CCOc1cccnc1F.Cl.Cl | 131 to 133 °C (dec.) |  |  |  |  |  |  |  |  | 
CCN(CCNC(=O)c1cn2cc(I)ccc2n1)CCOc1cccnc1F.Cl.Cl | 143 to 145 °C |  |  |  |  |  |  |  |  | 
CCN(CCNC(=O)c1cccc2nc3cc(I)ccc3nc12)CCOc1cccnc1F.Cl.Cl | 127 to 129 °C (dec.) |  |  |  |  |  |  |  |  | 
CCN(CCNC(=O)c1ccnc(F)c1)CCNC(=O)c1cnc2cc(I)ccc2n1 [Compound 39, N-[2-[N-ethyl-N-[2-[[(2-fluoropyridin-4-yl)carbonyl]amino]ethyl]amino]ethyl]-6-iodoquinoxaline-2-carboxamide] | 146 to 148 °C |  |  |  |  |  |  |  |  | 
CCN(CCNC(=O)c1cnc2cc(I)ccc2n1)CCNc1cccc(Br)n1 [Compound 63, N-[2-[N-[2-[(6-bromopyridin-2-yl)amino]ethyl]-N-(ethyl)amino]ethyl]-6-iodoquinoxaline-2-carboxamide] | 49 to 51 °C and 50 °C |  |  |  |  |  |  |  |  | 
CCN(CC)Cc1ccnc(F)c1CNC(=O)c1cnc2cc(I)ccc2n1 [Compound 91, N-[[4-(N,N-diethylaminomethyl)-2-fluoropyridin-3-yl]methyl]-6-iodoquinoxaline-2-carboxamide] | 147 to 149 °C |  |  |  |  |  |  |  |  | 
CCN(CC)CCNC(=O)c1cnc2ccc(I)cc2c1F [Compound 96, N-[2-(diethylamino)ethyl]-4-fluoro-6-iodoquinoline-3-carboxamide] | 88 to 90 °C and 89 °C |  |  |  |  |  |  |  |  | 
CCN(CC)CCNC(=O)c1cc(I)cc2c(F)ccnc12 [Compound 102, N-[2-(diethylamino)ethyl]-4-fluoro-6-iodoquinoline-8-carboxamide] | 80 °C and 79 to 81 °C |  |  |  |  |  |  |  |  | 
CCN(CC)CCNC(=O)c1cc(F)c2cc(I)ccc2n1 [Compound 106, N-[2-(diethylamino)ethyl]-4-fluoro-6-iodoquinoline-2-carboxamide] | 59 °C and 58 to 60 °C |  |  |  |  |  |  |  |  | 
CCN(CCCc1ccnc(F)c1)CCNC(=O)c1cnc2cc([125I])ccc2n1.Cl.Cl [[^125I]53] |  | 9.1 ± 1.8 | 9.3 ± 0.6 | 14.1 ± 3.9 | 16.3 ± 8.9 | 9.5 ± 5.9 | 5.1 ± 3.3 | 2.5 ± 2.1 | 1.4 ± 1.0 | 0.7 ± 0.5
CCN(C/C=C/CF)CCNC(=O)c1cnc2cc([125I])ccc2n1.Cl.Cl [[^125I]57] |  | 10.8 ± 2.3 | 12.3 ± 2.8 | 13.9 ± 1.3 | 15.0 ± 0.5 | 10.0 ± 0.9 | 5.6 ± 1.0 | 3.3 ± 0.6 | 1.9 ± 0.3 | 1.3 ± 0.6
CCN(CCNC(=O)c1ccc2cncc([125I])c2n1)CCOc1cccnc1F.Cl.Cl [[^125I]74] |  | 5.6 ± 1.7 | 5.5 ± 2.4 | 5.3 ± 2.4 | 5.2 ± 2.0 | 3.3 ± 2.0 | 1.6 ± 0.7 | 1.1 ± 0.5 | 0.5 ± 0.3 | 0.4 ± 0.3
CCN(CCNC(=O)c1cccc2nc3cc([125I])ccc3nc12)CCOc1cccnc1F.Cl.Cl [[^125I]85] |  | 11.4 ± 1.7 | 12.3 ± 1.7 | 13.8 ± 2.5 | 13.8 ± 2.3 | 5.8 ± 0.2 | 3.7 ± 0.6 | 2.0 ± 0.9 | 1.2 ± 0.5 | 0.7 ± 0.4
CCN(CC)Cc1ccnc(F)c1CNC(=O)c1cnc2cc([125I])ccc2n1.Cl.Cl [[^125I]92] |  | 5.6 ± 2.0 | 6.5 ± 3.2 | 6.7 ± 1.9 | 6.4 ± 1.8 | 4.1 ± 1.5 | 2.4 ± 0.7 | 1.5 ± 0.4 | 0.8 ± 0.3 | 0.7 ± 0.1
CCN(CC)CCNC(=O)c1cc(F)c2cc([125I])ccc2n1 [[^125I]106, [^125I]N-[2-(diethylamino)ethyl]-4-fluoro-6-iodoquinoline-2-carboxamide] |  | 6.0 ± 1.3 | 8.0 ± 0.9 | 9.5 ± 1.8 | 8.4 ± 0.8 | 4.9 ± 1.2 | 3.0 ± 0.1 | 2.3 ± 0.6 | 1.5 ± 0.1 | 0.7 ± 0.1
